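In this assay, cells in 96-well plates receive the compound at five concentrations for 48 hours. Endpoints are linearly interpolated between the surrounding concentrations. The concentration for 50% growth inhibition is given as GI50.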 The source made the active and inactive calls. No stated cut-off is given here; in the data, active = GI50 up to about 1.1 µM and inactive = higher. Some results are limits rather than exact numbers.

Among the test systems are A498; A549; COLO 205; HL-60; HOP-62; HOP-92; KM12; Malme-3M; NCI-H460; RPMI-8226; SF-295; SN12C; TK-10; HCT-15; LOX IMVI; MDA-MB-231; MDA-MB-435; NCI-H226; NCI/ADR-RES.
Common to all, as to assay: NCI tumour cell line growth inhibition, 48 h

On to `C/C(=N/N(C=O)C[n+]1ccccc1)C(CN(CC(C)C)CC(C)C)C(=O)Nc1ccc(C)cc1C` (centres undefined), for which the GI50 with A498 is 33.1 µM (inactive); with A549 it was > 100 µM (inactive); in the test with COLO 205, > 100 µM (inactive); in the test with HL-60, 73.1 µM (inactive); in the test on HOP-62, > 100 µM (inactive); in the test on HOP-92, 75.3 µM (inactive). Also, the GI50 in the test on KM12 was 84.1 µM (inactive); in the test with Malme-3M, > 100 µM (inactive); in the test on NCI-H460, > 100 µM (inactive); in the test on RPMI-8226, > 100 µM (inactive); in the test with SF-295, 71.8 µM (inactive); with SN12C, > 100 µM (inactive). In the test with TK-10, the GI50 was 42.4 µM (inactive).

Consider `O=C(c1ccc(Cl)cc1)N(C(=O)N1CCC(c2ccccc2)CC1)c1ccccc1`, for which the GI50 in the test with A498 was 20.4 µM (inactive); in the test on COLO 205, 33 µM (inactive); in the test with HCT-15, 15 µM; in the test on HL-60, 17.1 µM (inactive); in the test with KM12, 11.4 µM (inactive); in the test with LOX IMVI, 28.1 µM (inactive). In addition, the GI50 in the test with MDA-MB-231 is 26.1 µM (inactive); with MDA-MB-435, 25.8 µM (inactive); with Malme-3M, 10.4 µM (inactive); with NCI-H226 it was 17.8 µM (inactive); with NCI/ADR-RES, 16.6 µM (inactive); in the test with RPMI-8226 it was 13.7 µM (inactive). The values for the GI50 in the test with SF-295, with SN12C and in the test on TK-10 were 31 µM (inactive), 99.5 µM (inactive) and 30.7 µM (inactive), respectively.

As for `O=C1c2cccc([N+](=O)[O-])c2C(=O)c2nccnc21`, the GI50 in the test with A498 is 5.32 µM (inactive); in the test with A549, 1.66 µM (inactive); in the test on HCT-15 it was 1.47 µM; in the test with HL-60, 2.15 µM (inactive); in the test on HOP-92, 7.1 µM (inactive); with LOX IMVI, 1.04 µM (active). The GI50 in the test on Malme-3M was 1.63 µM (inactive); with NCI-H226 it was 1.94 µM (inactive); in the test on NCI-H460, 1.46 µM (inactive); with RPMI-8226, 3.05 µM (inactive); in the test on SF-295, 1.82 µM (inactive); in the test with SN12C it was 1.66 µM (inactive). In the test on TK-10, the GI50 was 2.06 µM (inactive).

As for `Cc1ccc(S(=O)(=O)Oc2nc3ccccc3nc2N(S(=O)(=O)c2ccc(C)cc2)S(=O)(=O)c2ccc(C)cc2)cc1`, the GI50 was 89.9 µM (inactive) in the test with A498; 85.1 µM (inactive) in the test on A549; > 100 µM (inactive) with COLO 205; 31 µM in the test on HCT-15; 33 µM (inactive) with HL-60; 33.7 µM (inactive) in the test with KM12. The GI50 is > 100 µM (inactive) with LOX IMVI; 71.6 µM (inactive) with MDA-MB-231; 35.8 µM (inactive) with MDA-MB-435; 49.9 µM (inactive) in the test with Malme-3M; 22.5 µM (inactive) in the test with NCI-H226; 28.7 µM (inactive) in the test with NCI-H460. The GI50 is 40.2 µM (inactive) with NCI/ADR-RES; 32.1 µM (inactive) in the test on RPMI-8226; 30.3 µM (inactive) in the test with SF-295; 44 µM (inactive) with SN12C; 39.8 µM (inactive) in the test with TK-10.

Take `Cc1ccccc1Nc1cn(COCc2ccccc2)c(=O)[nH]c1=O`: the GI50 was > 100 µM (inactive) with A498; 81.3 µM (inactive) in the test with A549; 50.9 µM (inactive) in the test with COLO 205; > 100 µM in the test with HCT-15; > 100 µM (inactive) with HL-60; > 100 µM (inactive) in the test with HOP-62. In addition, the GI50 in the test with HOP-92 was > 100 µM (inactive); in the test with KM12, 57.5 µM (inactive); in the test on LOX IMVI, 59.8 µM (inactive); in the test with MDA-MB-435, 85.3 µM (inactive); in the test on NCI-H460, 69.5 µM (inactive); in the test on NCI/ADR-RES, 40.2 µM (inactive). Further, the GI50 in the test on RPMI-8226, with SF-295 and in the test on SN12C was > 100 µM (inactive) each time.

Consider `COc1ccc(/C=N/n2c(Cc3ccccc3)n[nH]c2=O)cc1`, for which the GI50 in the test with A498 was 32.4 µM (inactive); with A549, > 100 µM (inactive); in the test with COLO 205, > 100 µM (inactive); in the test on HCT-15 it was > 100 µM; in the test with HOP-62, 69.3 µM (inactive); with KM12, > 100 µM (inactive). Besides, the GI50 is 22.6 µM (inactive) in the test on MDA-MB-231; > 100 µM (inactive) in the test on MDA-MB-435; > 100 µM (inactive) with Malme-3M; > 100 µM (inactive) in the test with NCI-H226; > 100 µM (inactive) in the test on NCI-H460; > 100 µM (inactive) in the test on NCI/ADR-RES. In addition, the GI50 with RPMI-8226 is > 100 µM (inactive); in the test on SF-295 it was 39.8 µM (inactive); in the test on SN12C it was > 100 µM (inactive).

Consider `O=C1C(c2ccccc2)=C(c2ccccc2)C(c2ccc(Sc3ccc(C4=C(c5ccccc5)C(=O)C(c5ccccc5)=C4c4ccccc4)cc3)cc2)=C1c1ccccc1`, for which the GI50 is > 100 µM (inactive) in the test on A498; > 100 µM (inactive) with A549; > 100 µM (inactive) in the test on COLO 205; > 100 µM with HCT-15; > 100 µM (inactive) with HL-60; 60.7 µM (inactive) in the test on HOP-62. The GI50 in the test on HOP-92, in the test on KM12, in the test with LOX IMVI, in the test with Malme-3M, with NCI-H226 and with NCI-H460 was > 100 µM (inactive) each time. In addition, the GI50 in the test with RPMI-8226, in the test on SF-295, in the test on SN12C and in the test with TK-10 was > 100 µM (inactive) throughout.

Take `CC(C)CCCC(C)[C@H]1CC[C@H]2[C@@H]3CC[C@H]4C[C@@H](CCC=C(c5cc(Cl)c(O)c(C(=O)OC(C)(C)C)c5)c5cc(Cl)c(O)c(C(=O)OC(C)(C)C)c5)CC[C@]4(C)[C@H]3CC[C@]12C` (some centres undefined): the GI50 in the test with A498 was > 50 µM (inactive); in the test with A549 it was > 50 µM (inactive); with COLO 205, > 50 µM (inactive); in the test on HCT-15, > 50 µM; with HL-60, > 50 µM (inactive); in the test with HOP-62, > 50 µM (inactive). The GI50 with KM12, with LOX IMVI, with MDA-MB-231, with MDA-MB-435, in the test on NCI/ADR-RES and in the test with RPMI-8226 was > 50 µM (inactive) in each case. Further, the GI50 in the test on SF-295 and in the test on SN12C was > 50 µM (inactive) each time.

Regarding `C=C(C)c1nc(C#N)c(N)o1`, the GI50 was > 100 µM (inactive) with A549; > 100 µM (inactive) with COLO 205; > 100 µM in the test with HCT-15; > 100 µM (inactive) with HOP-62; > 100 µM (inactive) with KM12; > 100 µM (inactive) in the test with LOX IMVI. For the same molecule, the GI50 with MDA-MB-231, in the test on MDA-MB-435, in the test on Malme-3M, in the test on NCI-H226, in the test with NCI-H460 and with NCI/ADR-RES was > 100 µM (inactive) throughout. Moreover, the GI50 with RPMI-8226, with SF-295, in the test with SN12C and in the test on TK-10 was > 100 µM (inactive) each time.

Turning to `Cc1c[nH]c2c1C13CC1CN(C(=O)c1cc4cc(NC(=O)c5cc6ccccc6o5)ccc4[nH]1)C3=CC2=O` (centres undefined), the GI50 is < 0.001 µM (active) in the test with A498; < 0.001 µM (active) in the test on COLO 205; < 0.001 µM with HCT-15; < 0.001 µM (active) in the test on HOP-62; < 0.001 µM (active) in the test on KM12; < 0.001 µM (active) in the test with LOX IMVI. Moreover, the GI50 in the test with Malme-3M, in the test on NCI-H226, in the test with NCI-H460, with SF-295, with SN12C and in the test with TK-10 was < 0.001 µM (active) in each case.

On to `O=C(Nc1ccn(C2CCC(CO)O2)c(=O)n1)c1ccccc1` (centres undefined), for which the GI50 is 50.4 µM (inactive) in the test with A498; > 100 µM (inactive) in the test on A549; > 100 µM (inactive) with COLO 205; > 100 µM in the test on HCT-15; > 100 µM (inactive) in the test on HL-60; > 100 µM (inactive) in the test on HOP-62. The GI50 in the test on KM12, in the test on LOX IMVI, in the test with MDA-MB-231, with MDA-MB-435, with Malme-3M and in the test with NCI-H226 was > 100 µM (inactive) throughout. For the same molecule, the GI50 in the test with NCI/ADR-RES, in the test on RPMI-8226, in the test on SF-295, in the test on SN12C and in the test on TK-10 was > 100 µM (inactive) throughout.

For the molecule `Cc1ccc(-c2n[nH]c(=O)n2N2C(=O)C=CC2=O)cc1`, the GI50 is > 100 µM (inactive) in the test on A498; > 100 µM (inactive) with A549; > 100 µM (inactive) with COLO 205; > 100 µM in the test on HCT-15; > 100 µM (inactive) in the test on HL-60; > 100 µM (inactive) in the test with HOP-62. Besides, the GI50 in the test with MDA-MB-231, with MDA-MB-435, in the test on Malme-3M, with NCI-H226, in the test on NCI-H460 and in the test on NCI/ADR-RES was > 100 µM (inactive) in each case. For the same molecule, the GI50 in the test with SF-295, in the test with SN12C and in the test on TK-10 was > 100 µM (inactive) each time.

With `CSC1=NN(c2ccccc2)C(=O)C1=C(SC)SC`, the GI50 in the test on A498 is 13.3 µM (inactive); in the test on A549, 20 µM (inactive); in the test with COLO 205, 13.2 µM (inactive); with HCT-15 it was 20.1 µM; with HL-60, 15.9 µM (inactive); with KM12, 31.6 µM (inactive). In addition, the GI50 was 20.2 µM (inactive) in the test on LOX IMVI; 14.3 µM (inactive) with MDA-MB-231; 31.9 µM (inactive) in the test on MDA-MB-435; 11.2 µM (inactive) with Malme-3M; 16.1 µM (inactive) in the test on NCI-H226; 14.2 µM (inactive) in the test on NCI-H460. Besides, the GI50 is 18.4 µM (inactive) in the test with NCI/ADR-RES, 14.3 µM (inactive) in the test with RPMI-8226, 28.4 µM (inactive) in the test on SN12C and 19.5 µM (inactive) in the test on TK-10.

The values are drawn from ChEMBL document CHEMBL1201862, “PubChem BioAssay data set” (2004).
